Reference: BigSolDB 2.1

CC(=O)N[C@@H](C=O)[C@@H](O)[C@H](O)[C@H](O)CO
solubility (mole fraction)
Conditions | 283.15 K | 288.15 K | 293.15 K | 298.15 K | 303.15 K | 308.15 K | 313.15 K
in acetone | 4.1e-05 | 7.2e-05 | 8.7e-05 | 0.000115 | 0.000161 | 0.000193 | 0.000241
in ethanol | 0.000166 | 0.000223 | 0.000242 | 0.000268 | 0.000313 | 0.000342 | 0.000382
in methanol | 0.000634 | 0.0007 | 0.000808 | 0.000907 | 0.00109 | 0.00136 | 0.00157
in n-propanol | 7.3e-05 | 8.5e-05 | 0.000115 | 0.000166 | 0.000241 | 0.000324 | 0.000392
in water | 0.0219 | 0.0236 | 0.0257 | 0.028 | 0.0302 | 0.0324 | 0.0344
